#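 Interpolation was linear, between the two tested concentrations surrounding the appropriate level; five concentrations were tested over 48 hours in 96-well plates. At the GI50, growth is halved.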 Activity calls are given as the source filed them. No stated cut-off is given here; in the data, active = GI50 up to about 1.1 µM and inactive = higher.
# Columns and labels:
# Test in all cases: inhibition of tumour cell growth, NCI panel, 48 h
# OVCAR-4 = test system: OVCAR-4
# SK-MEL-28 = test system: SK-MEL-28
# NCI/ADR-RES = test system: NCI/ADR-RES
# TK-10 = test system: TK-10
# OVCAR-3 = test system: OVCAR-3
# M14 = test system: M14
# T47D = test system: T47D
# DU-145 = test system: DU-145
# SNB-75 = test system: SNB-75
# U-251 = test system: U-251
# SN12C = test system: SN12C
# SW-620 = test system: SW-620
# SF-539 = test system: SF-539
# HL-60 = test system: HL-60
# SK-MEL-2 = test system: SK-MEL-2
# UO-31 = test system: UO-31
# NCI-H460 = test system: NCI-H460
# HCT-15 = test system: HCT-15
# OVCAR-8 = test system: OVCAR-8
# KM12 = test system: KM12
SMILES,GI50 (OVCAR-4),GI50 (SK-MEL-28),GI50 (NCI/ADR-RES),GI50 (TK-10),GI50 (OVCAR-3),GI50 (M14),GI50 (T47D),GI50 (DU-145),GI50 (SNB-75),GI50 (U-251),GI50 (SN12C),GI50 (SW-620),GI50 (SF-539),GI50 (HL-60),GI50 (SK-MEL-2),GI50 (UO-31),GI50 (NCI-H460),GI50 (HCT-15) [µM],GI50 (OVCAR-8),GI50 (KM12)
C=C(C)c1nc(Oc2ccccc2)nc(Oc2ccccc2)n1,11.2 µM (inactive),3.86 µM (inactive),10.9 µM (inactive),3.72 µM (inactive),6.04 µM (inactive),5.42 µM (inactive),5.36 µM (inactive),16.5 µM (inactive),9.75 µM (inactive),10.6 µM (inactive),5.6 µM (inactive),3.82 µM (inactive),6.37 µM (inactive),2.06 µM (inactive),2.21 µM (inactive),17.6 µM (inactive),9.04 µM (inactive),2.81,4.8 µM (inactive),3.09 µM (inactive)
Cc1ccc([S@+]([O-])c2occc2C=O)cc1,9.98 µM (inactive),3.82 µM (inactive),11 µM (inactive),14.3 µM (inactive),2.81 µM (inactive),6.9 µM (inactive),2.43 µM (inactive),19 µM (inactive),12.1 µM (inactive),12.9 µM (inactive),7.26 µM (inactive),1.93 µM (inactive),11.4 µM (inactive),1.8 µM (inactive),15 µM (inactive),11.1 µM (inactive),9.91 µM (inactive),3.49,9.93 µM (inactive),17.2 µM (inactive)
Fc1ccc(N2C(=S)SC(=N\c3ccccc3)/C2=N/c2ccccc2)cc1,> 57.7 µM (inactive),> 100 µM (inactive),> 92.7 µM (inactive),> 100 µM (inactive),41.6 µM (inactive),> 100 µM (inactive),25.5 µM (inactive),> 100 µM (inactive),> 100 µM (inactive),> 87.7 µM (inactive),> 100 µM (inactive),> 100 µM (inactive),> 100 µM (inactive),53.8 µM (inactive),> 40.5 µM (inactive),> 86.1 µM (inactive),> 100 µM (inactive),> 85.1,> 100 µM (inactive),73.1 µM (inactive)
OCCN(CCO)CCn1cnc2c(NCc3ccccc3)ncnc21,> 100 µM (inactive),> 100 µM (inactive),> 100 µM (inactive),> 100 µM (inactive),> 100 µM (inactive),> 100 µM (inactive),> 100 µM (inactive),> 100 µM (inactive),> 100 µM (inactive),> 100 µM (inactive),> 100 µM (inactive),> 100 µM (inactive),> 100 µM (inactive),> 100 µM (inactive),> 100 µM (inactive),> 100 µM (inactive),> 100 µM (inactive),> 100,> 100 µM (inactive),> 100 µM (inactive)
CS(=O)(=O)O.[Ag],2.33 µM (inactive),18.4 µM (inactive),29.8 µM (inactive),2.42 µM (inactive),23.8 µM (inactive),3.17 µM (inactive),2.15 µM (inactive),17.1 µM (inactive),12.3 µM (inactive),16.3 µM (inactive),19.1 µM (inactive),3.01 µM (inactive),17.3 µM (inactive),2.79 µM (inactive),15.4 µM (inactive),1.78 µM (inactive),20.2 µM (inactive),18.7,31.6 µM (inactive),29 µM (inactive)
O=P1(NCCCl)OCCC(OO)N1CCCl (stereo not given),20.5 µM (inactive),18.9 µM (inactive),28.7 µM (inactive),20 µM (inactive),23.2 µM (inactive),21.9 µM (inactive),0.316 µM (active),54 µM (inactive),32.7 µM (inactive),32.4 µM (inactive),37.4 µM (inactive),15.7 µM (inactive),16.9 µM (inactive),6.82 µM (inactive),37.7 µM (inactive),> 64.3 µM (inactive),37.8 µM (inactive),18,46.1 µM (inactive),> 100 µM (inactive)
CN(C)Cc1cc(/N=N/c2ccccc2)cc(CN(C)C)c1O,35.8 µM (inactive),> 100 µM (inactive),43 µM (inactive),> 100 µM (inactive),27.4 µM (inactive),> 100 µM (inactive),> 100 µM (inactive),92.5 µM (inactive),> 100 µM (inactive),99.1 µM (inactive),> 100 µM (inactive),> 100 µM (inactive),> 100 µM (inactive),21.9 µM (inactive),64.4 µM (inactive),55 µM (inactive),47.1 µM (inactive),56.6,57.1 µM (inactive),98.6 µM (inactive)
COc1ccc(/C(CCl)=C(\Nc2ccccc2)c2ccc(OC)c(OC)c2)cc1OC,75.5 µM (inactive),> 100 µM (inactive),> 100 µM (inactive),> 100 µM (inactive),> 100 µM (inactive),> 100 µM (inactive),27.7 µM (inactive),> 100 µM (inactive),> 100 µM (inactive),> 100 µM (inactive),> 100 µM (inactive),> 100 µM (inactive),> 100 µM (inactive),27.2 µM (inactive),> 100 µM (inactive),46.5 µM (inactive),82.6 µM (inactive),> 100,> 100 µM (inactive),> 100 µM (inactive)
C/C1=C\[C@H](C)C[C@H](C)OC(=O)[C@H](C)NC(=O)[C@@H](Cc2ccc(O)c(Br)c2)N(C)C(=O)[C@H](C)NC(=O)[C@@H](C)C1,0.0631 µM (active),0.00659 µM (active),0.126 µM (active),0.0724 µM (active),0.0179 µM (active),0.118 µM (active),0.282 µM (active),0.155 µM (active),0.0184 µM (active),0.00991 µM (active),0.401 µM (active),0.00385 µM (active),0.053 µM (active),0.00447 µM (active),0.0502 µM (active),0.0538 µM (active),0.00701 µM (active),0.982,0.147 µM (active),0.731 µM (active)
C=C(CN(C)C)C(=O)c1ccc(OC)cc1,5.26 µM (inactive),3.49 µM (inactive),8.32 µM (inactive),2.24 µM (inactive),2.77 µM (inactive),2.5 µM (inactive),0.881 µM (active),4.97 µM (inactive),15.5 µM (inactive),10.3 µM (inactive),2.48 µM (inactive),0.771 µM (active),4.1 µM (inactive),0.198 µM (active),4.61 µM (inactive),2.55 µM (inactive),21.8 µM (inactive),1.76,1.07 µM (active),14.5 µM (inactive)

# — ChEMBL document CHEMBL1201862, “PubChem BioAssay data set” (2004)
